Laboratory results taken from PMC5301048, “Selection and early clinical evaluation of the brain‐penetrant 11β‐hydroxysteroid dehydrogenase type 1 (11β‐HSD1) inhibitor UE2343 (Xanamem™)” (British Journal of Pharmacology, 2017).
In brackets after ≈: the same amount, converted by molar mass. Like-named read-outs stand apart in the source and are kept apart here.

Columns and labels:
[1] = target: T1, human 11β‐HSD1 (Homo sapiens, UniProt P28845); test: Inhibition of human 11β-HSD1 in stably transfected HEK293 cells; assay type: cell-based; conditions: HEK293 cells; mean ± SD [n]; read-out: Human 11β‐HSD1 IC50 in HEK293 cells
T1 construct: a construct containing the full‐length gene coding for the human 11β‐HSD1 enzyme; expressed in transfected cells; host or cells: HEK293
Protocol: Inhibition of human 11β‐HSD1 was determined in HEK293 cells stably transfected with a construct containing the full‐length gene coding for the human 11β‐HSD1 enzyme according to the protocol described by Sooy et al., 2010.

[2] = Tissue exposure measurements in rats (plasma and brain); assay type: in vivo; conditions: rat; for Kp / Cmax: male, Sprague Dawley; for Cmax: plasma; for Cmax / Brain Cmax / Plasma Cmax: mean ± SD
Protocol: The circulating plasma levels and tissue distribution of compounds were determined according to the method described in WO2011135276 (Webster et al., 2011a). Animals were group‐housed, had free access to food and water and were maintained in accordance with UK Home Office regulations. The animal work was conducted under UK Home Office Project Licence no. PPL 60/3915.
Compounds were prepared in 0.9% saline containing 2% DMSO (v^.v^‐1) and 38% PEG400 (v^.v^‐1) and administered to male Sprague Dawley rats by oral gavage such that the final concentration of compound was 10 mg·kg^−1. Rats (n = 3 per time point) were killed by decapitation at 1, 4 and 6 h post dosing, and trunk blood and tissues (liver, adipose and brain) were excised. Blood samples at 0.5 and 2 h post dosing were taken by a tail nick from the 4 and 6 h rats respectively.
Compounds were triple extracted from plasma (prepared from blood by a high speed centrifugation step) and spiked with 1 μg of a standard compound using ethyl acetate. Extracts were dried under nitrogen and re‐suspended in 60% methanol/40% ammonium acetate (5 mM).
A known weight of tissue was homogenized in 3 volumes of Krebs buffer. The compound was triple extracted with ethyl acetate from the supernatant of a low speed spin spiked with […] of a standard compound. Extracts were dried under nitrogen and re‐suspended in 60% methanol/40% ammonium acetate (5 mM).
Samples from plasma and tissue were analysed by TSQ Quantum Discovery Tandem Mass Spectrometer and Surveyor Liquid Chromatogram (Thermo, Hemel‐Hempstead, UK). Then 10 μL of each sample was injected in a mobile phase consisting of 60% methanol/40% ammonium acetate (5 mM) at a flow rate of 0.5 mL·min^−1. The column used was a BDS hypersil C18, 50 × 2.1 mm with a 5 μm particle size.
Each compound was tuned with a spray voltage of 3000 V and a capillary temperature of 300°C, and values for tube lens, CID and product ions were determined. The peak area for each compound and for the internal standard was determined, and the concentration of compound ^. g^‐1 of tissue or mL^‐1 of plasma was calculated by comparison of the peak area ratio to a standard curve.

[3] = in vivo; conditions: male, Sprague Dawley, rat
Protocol: Pharmacokinetic studies were carried out at Quotient Bioresearch, UK. For both i.v. and p.o. administration, compounds were prepared in 0.9% saline containing 2% DMSO (v^.v^‐1) and 38% PEG400 (v^.v^‐1). Solutions were passed through 0.22 μm filters prior to administration. Animals were given ad libitum access to food and water throughout the study. For i.v. administration three male Sprague Dawley rats each received 1 mg·kg^−1 of compound by tail vein injection (dose volume 5 mL·kg^−1). Serial blood samples were taken from a lateral tail vein 5, 15, 30 min, 1, 2, 4, 6 and 8 h post i.v. administration, and stored in individual EDTA containers. Blood samples were flash frozen in liquid nitrogen and stored at −20°C prior to analysis. For p.o. administration, five male Sprague Dawley rats were dosed with compound at 5 mg·kg^−1 (dose volume 10 mL·kg^−1). Serial blood samples were taken from a lateral tail vein 15, 30 min, 1, 2, 4, 6 and 8 h post p.o. administration, and stored in individual EDTA containers. Blood samples were flash frozen in liquid nitrogen and stored at −20°C prior to analysis. Blood samples were thawed at ambient temperature and vortex mixed thoroughly. A representative aliquot of each blood sample was diluted 1:1 v^.v^‐1 with HPLC grade water prior to protein precipitation with acetonitrile containing diazepam internal standard (blood/water: acetonitrile ratio was 1:4 v^ v^‐1). Following vortex mixing and centrifugation (4°C, 15 min, 17 000 x g) a 100 μL aliquot of supernatant was diluted by addition of 50 μL HPLC grade water in a well of a 96‐well midi‐eppendorf plate. The plate was sealed and shaken on a plate shaker to ensure sample homogeneity. Samples were assayed against a series of matrix matched calibration curve standards by LC–MS/MS using a Sciex 3000 mass spectrometer. Pharmacokinetic parameters were derived by non‐compartmental analysis using WinNonLin pharmacokinetic software.

[4] = Aqueous solubility at pH 7.4; assay type: physicochemical; conditions: thermodynamic from solid, pH 7.4, room temperature, mean ± SD [n]
Protocol: The concentration was quantified by HPLC with reference to a standard calibration curve. The solubility was calculated using the peak areas determined by integration of the peak found at the same retention time as the principal peak in the standard injection.

[5] = Plasma protein binding, human plasma; assay type: in vitro ADME; conditions: for Plasma protein binding (% unbound), human: mean ± SD [n]
Protocol: Plasma protein binding was determined using pooled human plasma according to the method described in WO2011135276 (Webster et al., 2011a).

[6] = Microsomal stability, rat liver microsomes; assay type: in vitro ADME; conditions: mean ± SD [n]
Protocol: (§1) Microsomal stability was determined using pooled human, rat or dog liver microsomes according to the method described in WO2011135276 (Webster et al., 2011a).

[7] = Plasma protein binding, rat plasma; assay type: in vitro ADME; conditions: mean ± SD [n]
[8] = Pharmacokinetics in dog (i.v. and p.o.); assay type: in vivo; conditions: Beagle, plasma
Protocol: Pharmacokinetic studies were carried out at Charles River, UK. For both i.v. and p.o. administration, compounds were prepared in 0.9% saline containing 2% DMSO (v^.v^‐1) and 38% PEG400 (v^.v^‐1). Solutions were passed through 0.22 μm filters prior to administration. Three Beagle dogs each received a single i.v. injection of compound 4 at a dose level of 1 mg·kg^−1. Following a washout period of 1 week, each animal received a single p.o. dose of compound 4 at a dose level of 5 mg·kg^−1.
After a washout period of 6 weeks, the same three dogs each received a single i.v. injection of compound 7 at a dose level of 1 mg·kg^−1. Following a washout period of 1 week, each animal received a single p.o. dose of compound 7 at a dose level of 5 mg·kg^−1.
Plasma samples were obtained up to 24 h post dose administration, and the concentration of each test item in plasma was determined using LC–MS/MS. Pharmacokinetic parameters were derived by non‐compartmental analysis using WinNonLin pharmacokinetic software.

[9] = target: T2, hERG K+ channel (Homo sapiens, UniProt Q12809); test: hERG inhibition, IonWorks Quattro patch clamp; assay type: cell-based; conditions: Chinese hamster lung cells expressing hERG; mean ± SD [n]
T2 construct: Chinese hamster lung cell line stably expressing the full length hERG channel; host or cells: Chinese hamster lung cell line
Protocol: Testing was performed by Essen Instruments, Hertfordshire, UK. Compounds were tested for inhibition of the human ether a go‐go related gene (hERG) K+ channel in a Chinese hamster lung cell line stably expressing the full length hERG channel. Single cell ionic currents were measured in the perforated patch clamp configuration at room temperature using an IonWorks Quattro instrument. Eight‐point concentration–response curves were generated using threefold serial dilutions from the maximum final assay concentration. IC50 values were obtained from a four‐parameter logistic fit of the % inhibition data.

[10] = Microsomal stability, dog liver microsomes; assay type: in vitro ADME; conditions: mean ± SD [n]
Protocol: as §1

[11] = Plasma protein binding, dog plasma; assay type: in vitro ADME; conditions: mean ± SD [n]
[12] = Microsomal stability, human liver microsomes; assay type: in vitro ADME; conditions: mean ± SD [n]
Protocol: as §1

[13] = brain and plasma, po, 10 mg/kg, 10 mg·kg^−1 oral gavage, read-out: Brain : plasma ratio
[14] = po, 10 mg/kg, 10 mg·kg^−1 oral gavage

T1 sequence (P28845 whole entry): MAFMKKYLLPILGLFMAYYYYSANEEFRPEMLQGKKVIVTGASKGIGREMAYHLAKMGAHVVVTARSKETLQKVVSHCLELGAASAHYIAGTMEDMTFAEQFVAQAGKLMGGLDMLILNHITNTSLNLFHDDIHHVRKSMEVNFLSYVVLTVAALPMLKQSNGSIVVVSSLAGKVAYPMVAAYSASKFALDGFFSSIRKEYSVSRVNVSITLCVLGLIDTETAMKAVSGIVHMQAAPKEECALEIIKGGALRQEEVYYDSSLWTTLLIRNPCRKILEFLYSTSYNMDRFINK
T2 sequence (Q12809 whole entry): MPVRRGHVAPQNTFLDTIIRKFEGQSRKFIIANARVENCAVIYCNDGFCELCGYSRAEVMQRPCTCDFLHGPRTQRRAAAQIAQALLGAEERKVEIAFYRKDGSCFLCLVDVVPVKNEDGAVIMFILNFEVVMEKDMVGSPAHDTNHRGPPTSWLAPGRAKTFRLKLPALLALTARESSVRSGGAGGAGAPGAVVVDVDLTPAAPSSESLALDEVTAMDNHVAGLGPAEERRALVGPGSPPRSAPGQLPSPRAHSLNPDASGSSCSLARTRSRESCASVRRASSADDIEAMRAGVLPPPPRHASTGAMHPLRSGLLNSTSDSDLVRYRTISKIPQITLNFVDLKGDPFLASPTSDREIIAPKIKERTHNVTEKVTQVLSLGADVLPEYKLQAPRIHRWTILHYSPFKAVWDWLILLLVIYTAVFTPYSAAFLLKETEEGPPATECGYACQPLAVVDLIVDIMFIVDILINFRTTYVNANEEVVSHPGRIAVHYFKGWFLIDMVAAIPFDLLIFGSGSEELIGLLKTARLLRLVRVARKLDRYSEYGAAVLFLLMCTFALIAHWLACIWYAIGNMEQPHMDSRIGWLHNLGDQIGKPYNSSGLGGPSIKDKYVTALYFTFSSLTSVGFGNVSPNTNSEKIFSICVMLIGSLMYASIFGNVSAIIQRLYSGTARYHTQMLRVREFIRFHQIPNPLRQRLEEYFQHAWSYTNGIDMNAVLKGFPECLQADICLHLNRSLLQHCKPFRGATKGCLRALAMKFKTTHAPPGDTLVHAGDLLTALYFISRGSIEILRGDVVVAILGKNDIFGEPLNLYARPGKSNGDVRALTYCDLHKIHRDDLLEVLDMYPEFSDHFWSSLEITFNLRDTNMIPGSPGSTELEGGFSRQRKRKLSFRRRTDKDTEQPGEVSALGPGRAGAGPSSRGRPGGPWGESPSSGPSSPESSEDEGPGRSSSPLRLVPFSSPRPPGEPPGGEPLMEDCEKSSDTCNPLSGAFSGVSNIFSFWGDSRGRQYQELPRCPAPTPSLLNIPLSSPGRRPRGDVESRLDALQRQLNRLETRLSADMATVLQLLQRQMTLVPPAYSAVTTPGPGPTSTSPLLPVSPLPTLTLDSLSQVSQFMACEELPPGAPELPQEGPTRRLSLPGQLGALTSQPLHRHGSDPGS

| Compound | IC50 [1] [nM] | Kp [2, 13] | Cmax [2, 14] [ng/mL] | Brain Cmax ([2]; 10 mg·kg^−1 oral gavage) [ng/mL] | further results |
| --- | --- | --- | --- | --- | --- |
| O=C(c1csc(-c2cn[nH]c2)c1)N1C2CCC1CC(O)(c1ccccc1)C2 (stereo not shown) [compound 1] | 22 ± 2 | 0.07 | 419 ± 28 | 29 ± 10 | bioavailability [3]: 23%; half-life [3]: 54 ± 6 min; clearance ([3]; iv, 1 mg/kg): 34 ± 22 mL/min/kg; solubility ([4]; aqueous buffer): 6 µg/mL (≈ 15.8 µM); Plasma protein binding (% unbound), human [5]: 10±0 % unbound |
| O=C(c1csc(-c2cn[nH]c2)c1)N1C2CCC1CC(O)(c1ccccn1)C2 (stereo not shown) [compound 2] | 26 ± 8 | 0.02 | 1270 ± 330 | 31 ± 12 | – |
| O=C(c1csc(-c2cn[nH]c2)c1)N1C2CCC1CC(O)(c1ncccc1Cl)C2 (stereo not shown) [compound 3] | 12 | 0.31 | 115 ± 48 | 36 ± 12 | – |
| O=C(c1csc(-c2cn[nH]c2)c1)N1C2CCC1CC(O)(c1cnccn1)C2 (stereo not shown) [compound 5] | 37 ± 3 | 0.03 | 589 ± 161 | 19 ± 17 | – |
| O=C(c1csc(-c2cn[nH]c2)c1)N1C2CCC1CC(F)(c1ccccn1)C2 (stereo not shown) [compound 6] | 22 ± 10 | – | – | 108 ± 54 | Brain : plasma ratio ([2]; 10 mg·kg^−1 oral gavage): 0.27; Plasma Cmax ([2]; 10 mg·kg^−1 oral gavage): 399 ± 99 ng/mL |
| O=C(c1csc(-c2cn[nH]c2)c1)N1C2CCC1CC(F)(c1ccccn1)C2 (stereo not shown) [compound 7] | 7 ± 4 | 0.24 | – | 374 ± 184 | Kp ([2]; brain (relative to free plasma), oral, 10 mg·kg^−1, rat, rat plasma protein binding taken into account, read-out: brain : plasma free ratio): 2.45; Plasma Cmax ([2]; 10 mg·kg^−1 oral gavage): 1526 ± 212 ng/mL; Liver microsomal stability (% parent at 30 min), rat [6]: 45 ± 5 [3] % parent at 30 min; solubility ([4]; aqueous phosphate buffer): 6 µg/mL (≈ 15.7 µM); Plasma protein binding (% unbound), human [5]: 11 ± 2 [2] % unbound; free fraction in plasma relative to the 3‐endo isomer (compound 6) ([5]; species not stated, in words): twofold greater; Plasma protein binding (% unbound), rat [7]: 10 ± 1 [2] % unbound; clearance ([8]; iv, i.v. 1 mg·kg^−1, mean ± SD): 8.68 ± 2.03 mL/min/kg; half-life ([8]; mean ± SD): 193 ± 96.6 min; Cmax ([8]; po, p.o. 5 mg·kg^−1, mean ± SD): 3100 ± 908 ng/mL; AUC ([8]; po, p.o. 5 mg·kg^−1, mean ± SD, read-out: Oral AUC(0➔∞)): 9210 ± 2000 ng·h/mL; bioavailability ([8]; po, p.o. 5 mg·kg^−1 vs i.v. 1 mg·kg^−1, mean ± SD): 90 ± 40%; IC50 [9]: 3.1 ± 0.6 µM; Liver microsomal stability (% parent at 30 min), dog [10]: 74 ± 1 [3] % parent at 30 min; Plasma protein binding (% unbound), dog [11]: 11 ± 0 [1] % unbound; Liver microsomal stability (% parent at 30 min), human [12]: 51 ± 3 [3] % parent at 30 min |
| N#CC1(c2ccccn2)CC2CCC(C1)N2C(=O)c1csc(-c2cn[nH]c2)c1 (stereo not shown) [compound 8] | 15 | 0.03 | 291 ± 74 | 9 ± 3 | – |
| N#CC1(c2ncccn2)CC2CCC(C1)N2C(=O)c1csc(-c2cn[nH]c2)c1 (stereo not shown) [compound 9] | 13 ± 3 | 0.07 | 230 ± 33 | 15 ± 1 | – |
